Some test systems named below: CAKI-1 renal; DU-145 prostate; HCT-116 colon; KM12 colon; LOX IMVI melanoma; M14 melanoma; MDA-MB-231 breast; NCI-H226 lung; NCI/ADR-RES ovarian; OVCAR-4 ovarian; OVCAR-5 ovarian; RPMI-8226 leukemia; SK-MEL-28 melanoma; SK-MEL-5 melanoma; SK-OV-3 ovarian; K-562 leukemia; SNB-75 CNS.
Common to all, as to test: growth of human tumour cells (NCI), 48 h

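Assay format: 96-well plates, 48-hour exposure. TGI: total growth inhibition.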

On to `O=C1NC(N2CCCCC2)=N/C1=C\c1ccco1`, for which the TGI in the experiment with CAKI-1 renal, in the experiment with DU-145 prostate, with HCT-116 colon, with KM12 colon, with LOX IMVI melanoma and in the experiment with M14 melanoma was over 100 µM each time. Besides, the TGI with MDA-MB-231 breast, with NCI-H226 lung, in the experiment on NCI/ADR-RES ovarian, with OVCAR-4 ovarian, with OVCAR-5 ovarian and with RPMI-8226 leukemia was over 100 µM throughout. For the same compound, the TGI in the experiment on SK-MEL-28 melanoma, in the experiment with SK-MEL-5 melanoma and with SK-OV-3 ovarian was over 100 µM in each case.

For `COC1OC(Cn2cc([N+](=O)[O-])nc2C)C(O)C(O)C1O` (stereo not drawn), the TGI with CAKI-1 renal, in the experiment on DU-145 prostate, with HCT-116 colon, in the experiment with K-562 leukemia, with KM12 colon and in the experiment on M14 melanoma was over 100 µM throughout. Further, the TGI in the experiment with MDA-MB-231 breast, with NCI/ADR-RES ovarian, with OVCAR-4 ovarian, in the experiment on OVCAR-5 ovarian, in the experiment on RPMI-8226 leukemia and in the experiment with SK-MEL-28 melanoma was over 100 µM throughout. The TGI with SK-MEL-5 melanoma and in the experiment with SK-OV-3 ovarian was over 100 µM throughout.

For the compound `O=Cc1ccc(-c2ccc(S(=O)(=O)O)cc2)o1`, the TGI in the experiment with CAKI-1 renal, in the experiment with DU-145 prostate, with HCT-116 colon, in the experiment on K-562 leukemia, with KM12 colon and in the experiment on LOX IMVI melanoma was over 100 µM in each case. Further, the TGI with M14 melanoma, in the experiment on MDA-MB-231 breast, in the experiment on NCI-H226 lung, in the experiment with NCI/ADR-RES ovarian, with OVCAR-5 ovarian and with RPMI-8226 leukemia was over 100 µM each time. For the same compound, the TGI with SK-MEL-28 melanoma, with SK-MEL-5 melanoma and in the experiment with SK-OV-3 ovarian was over 100 µM each time.

Consider `COc1ccc(NC(=O)NNS(=O)(=O)c2ccc(C)cc2)cc1`, for which the TGI with CAKI-1 renal, in the experiment with DU-145 prostate, with HCT-116 colon, with K-562 leukemia, in the experiment with KM12 colon and in the experiment with M14 melanoma was over 100 µM throughout. The TGI in the experiment on MDA-MB-231 breast, in the experiment on NCI-H226 lung, in the experiment with NCI/ADR-RES ovarian, in the experiment on OVCAR-4 ovarian, in the experiment on OVCAR-5 ovarian and in the experiment on RPMI-8226 leukemia was over 100 µM in each case. The TGI with SK-MEL-28 melanoma, with SK-MEL-5 melanoma, in the experiment on SK-OV-3 ovarian and with SNB-75 CNS was over 100 µM each time.

Regarding `N[C@H]1CCN(c2c(F)cc3c(=O)c(C(=O)O)cn4c3c2Oc2c-4ccc3c2ccc2ccccc23)C1`, the TGI in the experiment with CAKI-1 renal was over 25.5 µM; in the experiment on DU-145 prostate, over 62.7 µM; in the experiment on HCT-116 colon, over 35.3 µM; with KM12 colon, over 62.7 µM; with LOX IMVI melanoma, 22.9 µM; in the experiment with M14 melanoma it was over 100 µM. Besides, the TGI is over 100 µM with MDA-MB-231 breast; over 100 µM in the experiment with NCI-H226 lung; over 100 µM with NCI/ADR-RES ovarian; over 33.2 µM in the experiment with OVCAR-4 ovarian; over 100 µM with OVCAR-5 ovarian; 4.11 µM with RPMI-8226 leukemia. For the same compound, the TGI with SK-MEL-28 melanoma and in the experiment on SK-MEL-5 melanoma was over 100 µM throughout.

As for `COc1cc2c(cc1O)C(=O)O[C@@H]1CC=C3CCN(C)[C@H]3[C@H]21`, the TGI in the experiment on CAKI-1 renal, in the experiment with DU-145 prostate, in the experiment on HCT-116 colon, with K-562 leukemia, with KM12 colon and in the experiment with M14 melanoma was over 25 µM each time. Besides, the TGI in the experiment with MDA-MB-231 breast, in the experiment on NCI-H226 lung, in the experiment with NCI/ADR-RES ovarian, in the experiment with OVCAR-4 ovarian, with OVCAR-5 ovarian and in the experiment on RPMI-8226 leukemia was over 25 µM each time. For the same compound, the TGI with SK-MEL-28 melanoma, with SK-MEL-5 melanoma, with SK-OV-3 ovarian and in the experiment with SNB-75 CNS was over 25 µM each time.

Take `CCOC(=O)CCc1ccc(NC(=O)/C=C/c2ccc([N+](=O)[O-])o2)cc1`: the TGI in the experiment with CAKI-1 renal stood at 6.54 µM; in the experiment with DU-145 prostate it was 6.39 µM; in the experiment on HCT-116 colon, 2.01 µM; in the experiment with KM12 colon, 4.43 µM; in the experiment with LOX IMVI melanoma it was 1.54 µM; in the experiment on M14 melanoma, 2.43 µM. The TGI with MDA-MB-231 breast is 3.94 µM; with NCI-H226 lung, 25.5 µM; in the experiment on NCI/ADR-RES ovarian it was 5.37 µM; in the experiment with OVCAR-4 ovarian, over 100 µM; in the experiment on OVCAR-5 ovarian, 6.4 µM; with SK-MEL-28 melanoma, 3.39 µM. Also, the results for the TGI in the experiment on SK-MEL-5 melanoma, in the experiment with SK-OV-3 ovarian and with SNB-75 CNS were 3.49 µM, over 100 µM and 11.2 µM, respectively.

For `Oc1ccc(/C=N/c2nccs2)c(O)c1`, the TGI in the experiment with CAKI-1 renal, in the experiment on DU-145 prostate, in the experiment on HCT-116 colon, with KM12 colon, in the experiment on LOX IMVI melanoma and in the experiment on M14 melanoma was over 100 µM in each case. Moreover, the TGI in the experiment with MDA-MB-231 breast, in the experiment on NCI-H226 lung, in the experiment on NCI/ADR-RES ovarian, with OVCAR-5 ovarian, in the experiment on SK-MEL-5 melanoma and in the experiment with SK-OV-3 ovarian was over 100 µM throughout. In the experiment with SNB-75 CNS, this compound gave a TGI of over 100 µM.

Turning to `C1=Cc2cccc3occ(c23)C=C1`, the TGI in the experiment with CAKI-1 renal is over 100 µM; with DU-145 prostate, over 100 µM; with HCT-116 colon it was over 100 µM; in the experiment with K-562 leukemia, 40.1 µM; in the experiment on KM12 colon, over 100 µM; with LOX IMVI melanoma, 33.8 µM. The TGI in the experiment on M14 melanoma, with MDA-MB-231 breast, in the experiment with NCI-H226 lung, in the experiment on NCI/ADR-RES ovarian, in the experiment with OVCAR-4 ovarian and in the experiment with OVCAR-5 ovarian was over 100 µM throughout. Moreover, the TGI in the experiment with SK-MEL-28 melanoma, in the experiment with SK-MEL-5 melanoma and in the experiment with SK-OV-3 ovarian was over 100 µM in each case.
